The values that follow come from US9365533B2, “Coumarin derivative” (NIPPON ZOKI PHARMACEUTICAL CO., LTD., priority 2012, dated 2016).

The subject of test [1] is cartilage pieces of bovine metacarpophalangeal joint. Kind of test: Suppressive action to cartilage destruction: release of sGAG induced by IL-1α from cartilage pieces. It counts as cell-based. The note with it: Bos taurus, 96 h; 25 μmol/L test substance, 2 h pretreatment; human recombinant IL-1α 3 ng/mL; 4 days at 37° C.; read-out: sGAG Releasing Suppressive Rate (%). The procedure:
Evaluation of Suppressive Action to Cartilage Destruction [Release of sGAG Induced by Interleukin-1α (IL-1α)]
(1) Incubation of Cartilage Pieces
Each four cartilage pieces of bovine metacarpophalangeal joint were placed in each well of a 48-well plate and pretreated for 2 hours with a basal medium [D-MEM (Dulbecco's Modified Eagle Medium) containing 2 mmol/L of glutamine, 25 mmol/L of Hepes, 100 μg/mL of streptomycin, 100 IU/mL of penicillin and 5.6 μg/mL of amphotericin B] containing 25 μmol/L of a test substance. Human recombinant IL-1α (3 ng/mL) was added thereto followed by incubating at 37° C. for 4 days in a CO2 incubator set at 5 vol % of CO2. Culture supernatant and cartilage pieces were recovered and stored by freezing until the measurement for each of them.
(2) Measurement of the Amount of sGAG and Calculation of the Suppressive Rate for the Release of sGAG
The recovered cartilage pieces were treated with a papain solution [containing 1 mg/mL of papain, 100 mmol/L of sodium phosphate (pH 6.5), 5 mmol/L of L-cysteine and 5 mmol/L of disodium ethylenediaminetetraacetate (EDTA)] at 65° C. for about 16 hours to solubilize. Amount of sGAG in the resulting extract was measured using an sGAG Alcian Blue Binding Kit (Wieslab AB) which is a quantitative kit to which a Alcian blue staining protocol is applied. sGAG in the culture supernatant after the incubation was measured without subjecting to a papain treatment. Each releasing rate of sGAG was determined by the following formula to calculate the suppressive rate for the release of sGAG. Releasing rate (%) of sGAG={(Total sGAG amount in the culture supernatant)/[(Total sGAG amount in the culture supernatant)+(Total sGAG amount in the cartilage pieces)]}×100 Suppressive rate (%) for release of sGAG={[Releasing rate of sGAG (IL-1α stimulation)−Releasing rate of sGAG (Test substance)]/[Releasing rate of sGAG (IL-1α stimulation)−Releasing rate of sGAG (Non-stimulation)]}×100

In test [2] the test system is HFLS-OA cells. The experiment in a line: Suppressive action to TNF-α-induced proliferation of synovial cells (HFLS-OA), BrdU ELISA. The note with it: 200 μmol/L test substance, human recombinant TNF-α 10 ng/mL, 5 days, BrdU incorporation increase by TNF-α = 100%; for activity at 200 µM: Synovial cell, 120 h, read-out: Synovial Cell Proliferation Rate (%). Format: cell-based. The procedure: Evaluation of Suppressive Action to Cell Proliferation of Synovial Cells (HFLS-OA) Derived from Tissues of Human Osteoarthritis
(1) Incubation of HFLS-OA Cells
HFLS-OA cells were sown onto a 96-well plate so as to make them 10^4 cells/well/100 μL in a D-MEM containing 2 vol % of fetal bovine serum (FBS) and incubated for 24 hours. A test substance (200 μmol/L) and human recombinant TNF-α (10 ng/mL) were added thereto followed by incubating for 5 days.
(2) Measurement of Action to HFLS-OA Cell Proliferation
A kit [Cell Proliferation ELISA, BrdU (colorimetric) (Roche Diagnostics)] was used and measurement was conducted according to the protocol attached to the kit. HFLS-OA cells were incubated for 3 days and 10 μL of 5-bromo-2′-deoxyuridine (BrdU) dissolved in a phosphate buffered saline (PBS) (100 μmol/L, pH 7.4) was added to each well followed by incubating for 48 hours more. After the culture supernatant was removed from each well, 200 μL/well of an immobilization/denaturation solution was added thereto and the mixture was allowed to stand for 30 minutes whereby immobilization of the cells and denaturation of DNA were conducted. After the immobilization/denaturation solution was completely removed, 100 μL of a peroxidase-labeled anti-BrdU antibody solution was added thereto and the mixture was made to react at room temperature for 90 minutes. After washing with PBS, 100 μL of a substrate liquid (tetramethylbenzidine) was added to each well and the absorbance was measured. A cell proliferation rate upon addition of each test substance was calculated where an increase in incorporation of BrdU upon addition of TNF-α was defined as 100% of cell proliferation rate.
(In general: Incorporation of labelled thymidine or its analogues reports DNA synthesis.)

For `COc1ccc(S(=O)(=O)Nc2cc3cccc(OS(=O)(=O)c4ccc(OC)cc4)c3oc2=O)cc1` [Compound 1, 3-[(4-Methoxyphenyl)sulfonylamino]-2-oxochromen-8-yl 4-methoxybenzenesulfonate], the inhibition at 25 µM in test [1] is 93%. The activity at 200 µM in test [2] is -39.1%. Take `COc1cccc(S(=O)(=O)Nc2cc3cccc(OS(=O)(=O)c4cccc(OC)c4)c3oc2=O)c1` [Compound 2, 3-[(3-Methoxyphenyl)sulfonylamino]-2-oxochromen-8-yl 3-methoxybenzenesulfonate]: in test [2], the activity at 200 µM was -52.2%.

On to `COc1ccccc1S(=O)(=O)Nc1cc2cccc(OS(=O)(=O)c3ccccc3OC)c2oc1=O` [Compound 3, 3-[(2-Methoxyphenyl)sulfonylamino]-2-oxochromen-8-yl 2-methoxybenzenesulfonate], for which, in test [2], the activity at 200 µM was -65.1%. On to `Cc1ccc(S(=O)(=O)Nc2cc3cccc(OS(=O)(=O)c4ccc(C)cc4)c3oc2=O)cc1` [Compound 4, 2-Oxo-3-(p-tolylsulfonylamino)chromen-8-yl 4-methyl-benzenesulfonate], for which the activity at 200 µM in test [2] was -88.1%.

Consider `Cc1cccc(S(=O)(=O)Nc2cc3cccc(OS(=O)(=O)c4cccc(C)c4)c3oc2=O)c1` [Compound 5, 3-(m-Tolylsulfonylamino)-2-oxochromen-8-yl 3-methyl-benzenesulfonate], for which the activity at 200 µM in test [2] is -84.9%. The same measure, in the same setting: under `Cc1ccccc1S(=O)(=O)Nc1cc2cccc(OS(=O)(=O)c3ccccc3C)c2oc1=O` [Compound 6, 3-(o-Tolylsulfonylamino)-2-oxochromen-8-yl 2-methyl-benzenesulfonate] stands -77.4%; under `O=c1oc2c(OS(=O)(=O)c3ccc(Cl)cc3)cccc2cc1NS(=O)(=O)c1ccc(Cl)cc1` [Compound 7, 3-[(4-Chlorophenyl)sulfonylamino]-2-oxochromen-8-yl 4-chlorobenzenesulfonate], -92.5%; under `O=c1oc2c(OS(=O)(=O)c3cccc(Cl)c3)cccc2cc1NS(=O)(=O)c1cccc(Cl)c1` [Compound 8, 3-[(3-Chlorophenyl)sulfonylamino]-2-oxochromen-8-yl 3-chlorobenzenesulfonate], -94.4%. Take `O=c1oc2c(OS(=O)(=O)c3ccccc3Cl)cccc2cc1NS(=O)(=O)c1ccccc1Cl` [Compound 9, 3-[(2-Chlorophenyl)sulfonylamino]-2-oxochromen-8-yl 2-chlorobenzenesulfonate]: the activity at 200 µM in test [2] was -88.8%.

With `O=c1oc2c(OS(=O)(=O)c3ccc(F)cc3)cccc2cc1NS(=O)(=O)c1ccc(F)cc1` [Compound 10, 3-[(4-Fluorophenyl)sulfonylamino]-2-oxochromen-8-yl 4-fluorobenzenesulfonate], the activity at 200 µM in test [2] was -34.9%.

In the case of `O=c1oc2c(OS(=O)(=O)c3cccc(F)c3)cccc2cc1NS(=O)(=O)c1cccc(F)c1` [Compound 11, 3-[(3-Fluorophenyl)sulfonylamino]-2-oxochromen-8-yl 3-fluorobenzenesulfonate], the activity at 200 µM in test [2] is -90.6%. For the compound `O=c1oc2c(OS(=O)(=O)c3ccccc3F)cccc2cc1NS(=O)(=O)c1ccccc1F` [Compound 12, 3-[(2-Fluorophenyl)sulfonylamino]-2-oxochromen-8-yl 2-fluorobenzenesulfonate], the activity at 200 µM in test [2] was -91.8%. In the case of `N#Cc1ccc(S(=O)(=O)Nc2cc3cccc(OS(=O)(=O)c4ccc(C#N)cc4)c3oc2=O)cc1` [Compound 13, 3-[(4-Cyanophenyl)sulfonylamino]-2-oxochromen-8-yl 4-cyanobenzenesulfonate], the inhibition at 25 µM in test [1] came to 44%. For the same compound, the activity at 200 µM in test [2] is -54.1%.

With `N#Cc1cccc(S(=O)(=O)Nc2cc3cccc(OS(=O)(=O)c4cccc(C#N)c4)c3oc2=O)c1` [Compound 14, 3-[(3-Cyanophenyl)sulfonylamino]-2-oxochromen-8-yl 3-cyanobenzenesulfonate], the inhibition at 25 µM in test [1] amounted to 66%. Moreover, in test [2], the activity at 200 µM was -60.3%. Turning to `N#Cc1ccccc1S(=O)(=O)Nc1cc2cccc(OS(=O)(=O)c3ccccc3C#N)c2oc1=O` [Compound 15, 3-[(2-Cyanophenyl)sulfonylamino]-2-oxochromen-8-yl 2-cyanobenzenesulfonate], the activity at 200 µM in test [2] was -3.3%. Take `O=c1oc2c(OS(=O)(=O)c3ccc([N+](=O)[O-])cc3)cccc2cc1NS(=O)(=O)c1ccc([N+](=O)[O-])cc1` [Compound 16, 3-[(4-Nitrophenyl)sulfonylamino]-2-oxochromen-8-yl 4-nitrobenzenesulfonate]: the inhibition at 25 µM in test [1] was 112%. Further, the activity at 200 µM in test [2] was -19.9%. Turning to `O=c1oc2c(OS(=O)(=O)c3cccc([N+](=O)[O-])c3)cccc2cc1NS(=O)(=O)c1cccc([N+](=O)[O-])c1` [Compound 17, 3-[(3-Nitrophenyl)sulfonylamino]-2-oxochromen-8-yl 3-nitrobenzenesulfonate], the inhibition at 25 µM in test [1] worked out at 156%. Moreover, the activity at 200 µM in test [2] was -24.9%. As to `O=c1oc2c(OS(=O)(=O)c3ccccc3[N+](=O)[O-])cccc2cc1NS(=O)(=O)c1ccccc1[N+](=O)[O-]` [Compound 18, 3-[(2-Nitrophenyl)sulfonylamino]-2-oxochromen-8-yl 2-nitrobenzenesulfonate], the inhibition at 25 µM in test [1] was 81%. In addition, in test [2], the activity at 200 µM is -23.8%.

`N#Cc1ccc(S(=O)(=O)Oc2cccc3cc(NS(=O)(=O)c4ccccc4)c(=O)oc23)cc1` [Compound 20, 3-(Benzenesulfonylamino)-2-oxochromen-8-yl 4-cyanobenzenesulfonate]: the inhibition at 25 µM in test [1] came out at 35%. The activity at 200 µM in test [2] was -42.1%. For the compound `N#Cc1ccc(S(=O)(=O)Nc2cc3cccc(OS(=O)(=O)c4ccccc4)c3oc2=O)cc1` [Compound 21, 3-[(4-Cyanophenyl)sulfonylamino]-2-oxochromen-8-yl benzenesulfonate], in test [1], the inhibition at 25 µM was found to be 69%. In addition, the activity at 200 µM in test [2] is -41.2%. The like results for `N#Cc1cccc(S(=O)(=O)Nc2cc3cccc(OS(=O)(=O)c4ccccc4)c3oc2=O)c1` [Compound 22, 3-[(3-Cyanophenyl)sulfonylamino]-2-oxochromen-8-yl benzenesulfonate] were, in that order, 92% and -38.4%. Take `O=c1oc2c(OS(=O)(=O)c3ccccc3)cccc2cc1NS(=O)(=O)c1ccc([N+](=O)[O-])cc1` [Compound 23, 3-[(4-Nitrophenyl)sulfonylamino]-2-oxochromen-8-yl benzenesulfonate]: in test [1], the inhibition at 25 µM amounted to 103%. Moreover, the activity at 200 µM in test [2] was -39%. Turning to `O=c1oc2c(OS(=O)(=O)c3ccccc3)cccc2cc1NS(=O)(=O)c1cccc([N+](=O)[O-])c1` [Compound 24, 3-[(3-Nitrophenyl)sulfonylamino]-2-oxochromen-8-yl benzenesulfonate], the inhibition at 25 µM in test [1] was 90%. Further, in test [2], the activity at 200 µM is -40%. On to `CS(=O)(=O)Nc1cc2cccc(OS(=O)(=O)c3cccc(Br)c3)c2oc1=O` [Compound 39, 3-(Methanesulfonamide)-2-oxochromen-8-yl 3-bromobenzenesulfonate], for which the “Synovial Cell Proliferation Rate (%)” value in test [2] is −43.0%. On the same count and under the same terms, the value for `CS(=O)(=O)Nc1cc2cccc(OS(=O)(=O)c3ccccc3)c2oc1=O` [Compound 40, 3-(Methanesulfonamide)-2-oxochromen-8-yl benzene-sulfonate] was −40.5%.
